Laboratory results reported in patent US4223041A, “Urea derivatives to treat anxiety and aggressivity” (Labaz, priority 1976, dated 1980).

Legend:
[1] = rota rod test (neurotoxicity); type: in vivo, mouse; conditions: for % of failures in rota rod test: mice, 30 min after administration
Experimental: The test used was that known as the rota rod test described by BOISSIER (Therapie 1958 XIII pp. 1074-1118).
This test aims at determining the ability of mice to coordinate their movements by seeing to what extent they can remain on a roller turning at a rate of 4 revolutions per minute for two minutes. The trial was carried out thirty minutes after administration by oral route of the compound to be studied and the percentage of failures was noted.
The value of this test is twofold. Failure on the part of the animals gives a very early indication of the slightest damage to the meuromuscular functions which cannot be discerned by any other means. Secondly, this test serves as an element of comparison for drawing up index figures involving the results obtained with other tests.

[2] = mouse, in vivo, po, 1000 mg/kg
From the text: Finally, the hypnotic action of Compound A was studied in mice by means of the test of the posture reflex, the animals being kept under observation during the four hours following the oral administration of the product.

[3] = Action on the pentylenetetrazole-induced seizure (anticonvulsant activity); type: in vivo, mouse; conditions: Mus musculus, 3 h; 320 mg/kg oral, mice, 15 min before 125 mg/kg pentylenetetrazole; read-out: % of protection against death
Experimental: The purpose of this test which is carried out on mice is to determine whether the compounds of the invention, when given preventively by oral route, are capable at certain doses of protecting some of the animals against the epileptic seizure produced by a predetermined dose of pentylenetetrazole which would be 100% fatal in the absence of the compound.
The compound to be studied was administered fifteen minutes before an injection of 125 mg/kg of pentylenetetrazole and note was taken of the number of deaths occurring during the three hours following this injection. The results were expressed in percentage of protection of the animals against death at the dose studied.

With `CCCC(CCC)(CCC)NC(N)=O` [Compound A, 1-(1,1-Di-n-propyl-n-butyl)-urea] the “% of failures in rota rod test” value ([1]; 175 mg/kg oral) was 0%, the “% of failures in rota rod test” value ([1]; 600 mg/kg oral) was 30% and the “sedative effect relative to reference products” value ([1]; at ED25 of four plates test) was “least sedative”. For the same compound, the “failures in the rota rod test” value ([1]; at the dose which provokes a 60%-decrease in the number of combats) was “no failure”, the “Rota rod (% of failures)” value ([1]; comparison at 25%-protection dose of four plates test, 175 mg/kg) was 0% and the “loss of the posture reflex” value [2] was “no loss of the posture reflex”. The responders at 320 mg/kg [3] was 50%.
